Results on 71 molecules are retold here after ChEMBL document CHEMBL3507680, “University of Dundee, Gates Library screen for HepG2 cell viability”.

The nature of the data set: Human HepG2 cell viability assay in 384 well format. On the set-up: dose 125 nL, time 70.5 hour; cytotoxicity at 70.5 h: concentration not given beside the values. As to conditions: HepG2 cells, read-out: Inhibition. The format is toxicity, cell-based.
Take `FC(F)(F)COc1cccc(-c2nc3c([nH]2)CCNC3)c1`: the cytotoxicity at 70.5 h was -4.72%.
For the molecule `COCC(NC(=O)c1cc(NC(C)=O)ccc1Cl)c1ccccn1` (stereo unspecified), the cytotoxicity at 70.5 h is -5.35%.
In the case of `CN1CCC(Oc2ccc(-n3ccnc3-c3nccn3C)cc2)CC1`, the cytotoxicity at 70.5 h is -8.7%.
To `O=C(NCC(O)c1cccc(F)c1)C1CCN(C(=O)C2CCC2)CC1` (stereo unspecified) belongs -1.02%; to `CNc1cc(C)nc(-c2cc(NCCO)nc3[nH]ccc23)n1`, 11.9%.
The same measure for `CCc1cc(N[C@@H](CO)C(N)=O)n2nc(C)c(C)c2n1`: -2.72%.
To `CCS(=O)(=O)N[C@H]1CN(Cc2noc(COC)n2)C[C@@H]1C1CC1` belongs -8.57%; to `CCN(Cc1nc(COC)no1)Cc1cccnc1NC(=O)C(C)(C)C`, -9.55%; to `COCc1ncc(CN2CCC3(CCC(=O)N(CC(C)O)C3)CC2)cn1` (stereo unspecified), -9.93%.
As for `CCCn1cnnc1-c1nc2c([nH]1)CC(c1ccc(Cl)cc1)CNC2=O` (stereo unspecified), the cytotoxicity at 70.5 h is 8.16%.
To `COCCN1CCCC(CN(C)c2nc3c(s2)c(C)nn3C)C1` (stereo unspecified) belongs -4.58%; to `CC1(C)CN(C(=O)c2cnc(-c3ccccn3)nc2)CC[C@]1(C)O`, 0.152%.
To `COc1nccnc1-c1cc(NC2CCNCC2)nc2[nH]ccc12` belongs -0.195%; to `Cc1cc(C)c2ncn(CCC(C)O)c(=O)c2c1` (stereo unspecified), -5.19%; to `C[C@@H]1CN(c2nc3c(cc2C(N)=O)CCC3)CC[C@@]1(O)C1CCC1`, -12.9%.
The same measure for `CN(C)Cc1nnc(C(=O)N(C)Cc2ccc(F)cc2)o1`: -4.17%; for `O=C(CC[C@@H]1CCCN2CCCC[C@H]12)NCCc1cc(O)ncn1`: -11.3%; for `CCC[C@@H]1CN(Cc2cnc3c(S(C)(=O)=O)cnn3c2)C[C@H]1N(C)C`: -7.08%.
On to `Cc1ccc(N2Cc3cnn(Cc4ccc(F)cc4)c3C2)nn1`, for which the cytotoxicity at 70.5 h is -4.14%.
The same measure for `CN(C)c1ncnc2c1CCN(C(=O)c1sccc1S(N)(=O)=O)C2`: -2.96%.
To `CC(C)C1=NOC(c2nc(Cc3ccccc3)no2)C1` (stereo unspecified) belongs -1.11%; to `CCn1c(CN2CCCC2)nnc1C1CCN(Cc2ccncc2)CC1`, 19.4%.
To `Cc1cc(C(=O)N2CCN(Cc3ccco3)C(CCO)C2)cc(=O)[nH]1` (stereo unspecified) belongs 21.1%; to `COc1ccc(OCc2nc(C(=O)NCCN3CCOCC3)co2)cc1`, -5.59%; to `OC1(CNCCSc2ccccn2)CNCCOC1` (stereo unspecified), 1.38%.
`O=c1[nH]c2cc3c(cc2cc1CN1CCCC1c1ccccn1)CCC3` (stereo unspecified): the cytotoxicity at 70.5 h was determined as 9.53%.
The same measure for `Cc1cccc(OCC2CCCN(C(=O)CN(C)C3CCNCC3)C2)c1` (stereo unspecified): 11.3%; for `COCc1cn(CC2CCN(Cc3c(C)[nH]c4ccccc34)CC2)nn1`: -7.19%; for `CC(C)CN(C)Cc1c[nH]nc1-c1ccc(F)cc1F`: -15%.
To `O=C1CC(c2cccs2)c2cnn(C3CCCC3)c2N1` (stereo unspecified) belongs 6.7%; to `CN(C)Cc1nnc(C2CCN(C(=O)CCc3cccs3)CC2)n1C`, -8.36%; to `CN(C)C(=O)N1C[C@@H]2CC[C@H](C1)N(C(=O)CCCn1cncn1)C2`, -10.6%.
To `O=C1N(Cc2cccc(F)c2F)CCCC1(O)CNC1CCCC1` (stereo unspecified) belongs -2.45%.
In the case of `CC(C)CN1CCCn2nc(CNC(=O)c3cccnc3O)cc2C1`, the cytotoxicity at 70.5 h was 14.1%.
The same measure for `Cn1cccc1-c1cc(C(=O)N2CCCC2c2cccnc2)[nH]n1` (stereo unspecified): -4.46%; for `CN(CCN1CCCCC1)C(=O)c1cc(CN2CCOCC2)on1`: 2.75%; for `CC(C)c1nc(N2CC(N3CCCCC3C)C2)c2cnn(C)c2n1` (stereo unspecified): 12%.
The same measure for `O=C(NC1CCCC1)N1CCCC(c2nccn2Cc2ccncc2)C1` (stereo unspecified): 0.665%; for `O=C(NC[C@@H]1CCCN1)c1cc(COc2cccc(C(F)(F)F)c2)[nH]n1`: -1.5%.
`CN(CCc1ccccc1)c1cnn(CC(=O)N2CCSCC2)c(=O)c1`: the cytotoxicity at 70.5 h was -3.48%.
Turning to `Cc1ccccc1CC1(CO)CCCN(c2ncccc2C#N)C1` (stereo unspecified), the cytotoxicity at 70.5 h is -4.27%.
As to `CN(C)C(=O)N1CCn2nc(CNC(=O)CCC(F)(F)F)cc2C1`, the cytotoxicity at 70.5 h is -3.05%.
To `CSc1ccccc1CN1CCn2nc(CNC(C)=O)cc2C1` belongs -0.83%.
The same measure for `CCNC(=O)[C@@H]1C[C@@H](NC(=O)c2cccnc2O)CN1Cc1ccsc1`: -11.2%; for `NC(=O)NCC(=O)N1C[C@H]2CC[C@@H]1CN(Cc1ccccc1)C2`: 1.42%.
For `CN1CC(c2ccccc2)CC2(CCN(CC(=O)N(C)C)CC2)C1` (stereo unspecified), the cytotoxicity at 70.5 h was -8.78%.
The same measure for `O=C(c1ccc[nH]1)N1C[C@H]2CC[C@@H]1CN(c1ncccn1)C2`: -8.11%; for `O=C(c1cccc(S(=O)(=O)NCCCc2ncc[nH]2)c1)N1CCOCC1`: -9.14%.
To `CC[C@@]1(O)CCN(C(=O)c2ccsc2)C[C@H]1O` belongs -7.08%; to `CC(C)(C)c1cc(CN2CC[C@@H](NC(=O)c3cccnc3)[C@H](O)C2)n[nH]1`, 0.738%; to `N#Cc1c(SCCN2CCOCC2)sc2c(O)cc(O)nc12`, 17.3%.
The same measure for `N#Cc1c(SCCN2CCCCCC2)sc2c(O)cc(O)nc12`: 12.1%; for `CCC(NC(=O)c1c(C(=O)O)cnn1C)c1ccc(C)cc1C` (stereo unspecified): -3.68%.
On to `CC(C)c1cc(CSCCC(=O)O)no1`, for which the cytotoxicity at 70.5 h was -4.33%.
With `Cc1c2c(C(F)F)cc(SCC(=O)O)nc2nn1C`, the cytotoxicity at 70.5 h is -2.86%.
`CCn1cc(N)c(-c2nnc3n2CCC3)n1`: the cytotoxicity at 70.5 h was 13.1%.
The same measure for `CCOc1ccccc1C(=O)Nn1c(C)cc(C)cc1=O`: -6.5%.
In the case of `Cn1ncc(NC(=O)c2noc3c2CCCC3)c1C(N)=O`, the cytotoxicity at 70.5 h is -5.51%.
As for `CCN(CC)C1COc2c(cc(Br)c(C)c2Br)C1=O` (stereo unspecified), the cytotoxicity at 70.5 h was -7.72%.
To `CCN(CC)C1COc2ccc(Br)cc2C1=O` (stereo unspecified) belongs -5.6%; to `CCc1c(O)n(C(C)CC)c(SCC(=O)c2ccccc2)nc1=O` (stereo unspecified), -8.65%.
The same measure for `Cn1cc(C(=O)NC(Cn2cccn2)C(C)(C)C)cn1` (stereo unspecified): 2.11%; for `Cc1cn(Cc2ccc(F)c(F)c2)nc1N`: 19.5%; for `O=C(CSc1nccc(-c2ccc3c(c2)OCO3)n1)N1CCOCC1`: -1.22%.
To `CCn1cc(-c2cc(C(F)F)n3nc(CCC(=O)O)nc3n2)cn1` belongs -2.48%.
As for `Cc1cn(Cc2ccc(F)cc2)nc1N`, the cytotoxicity at 70.5 h is -1.4%.
The same measure for `Cc1ccc(Cn2cc(C)c(N)n2)cc1`: 22.1%; for `CCC1(c2ccc(NS(=O)(=O)N(C)C)cc2)CCC(=O)NC1=O` (stereo unspecified): -2.76%; for `Cn1nnnc1SCC1COc2ccccc2O1` (stereo unspecified): 0.146%.
To `O=C1c2cc(Br)cc(Br)c2OCC1(CN1CCCC1)CN1CCCC1` belongs -1.34%; to `CC(=O)c1ccc(OCC(C)O)cc1O` (stereo unspecified), 5.87%.
